Test results reported in patent US8558011B2, “Cold menthol receptor-1 antagonists” (Janssen Pharmaceutica, NV, priority 2010, dated 2013).
“And” between values parts separate entries of the source, which are not always exact repeats. Equal values may be shown once.

What was measured:
canine TRPM8 = target: T1, canine TRPM8 (Canis lupus familiaris, UniProt Q1A7N1); assay: In Vitro Canine TRPM8 Functional Assay (Ca2+-sensitive fluorescent dye, icilin activation, FLIPR/FDSS); assay type: cell-based; conditions: HEK293 cells stably expressing canine TRPM8, icilin activation; for IC50: eight-point dose-response; for % I (0.5 μM): compound at 0.5 μM; for % I (1 μM): compound at 1 μM
T1 construct: expressed in transfected cells
Description: The functional activity of compounds of Formula (I) was determined by measuring changes in intracellular calcium concentration using a Ca^2+-sensitive fluorescent dye. The changes in fluorescent signal were monitored by a fluorescence plate reader, either a FLIPR™ (Molecular Devices) or FDSS (Hamamatsu).
HEK293 cells stably expressing canine TRPM8 were routinely grown as monolayers in Dulbecco's minimum essential medium supplemented with 10% FBS, 1 mM L-glutamine, 100 units/mL penicillin, 100 ug/mL streptomycin and 400 μg/mL G418. Cells were maintained in 5% CO2 at 37° C. At 24 hrs prior to assay, cells were seeded in clear-base poly-D-lysine coated 384-well plates (BD Biosciences, NJ, USA) at a density of 5,000 cells per well in culture medium and grown overnight in 5% CO2 at 37° C. On assay day, growth media was removed and cells were loaded with Calcium 3 Dye (Molecular Devices) for 35 min at 37° C., under 5% CO2 and then for 25 min at room temperature and atmosphere. Subsequently, cells were tested for agonist-induced increases in intracellular Ca^2+ levels using FLIPR™ or FDSS. Cells were challenged with a compound of Formula (I) (at varying concentrations) and intracellular Ca^2+ was measured for 5 min prior to the addition of icilin to all wells to achieve a final concentration which produces approximately an 80% maximal response.
Basal FI was subtracted prior to normalizing data to percent of maximal response. Curves were generated using the average of quadruplicate wells for each data point, were analyzed using nonlinear regression of either sigmoidal dose response or sigmoidal dose response (variable slope). Finally, the EC50 and IC50 values were calculated with the best-fit dose curve determined by GraphPad Prism.

[1] = test system: CFA-induced Paw Radiant Heat Hypersensitivity; assay: CFA-induced paw radiant heat hypersensitivity; assay type: in vivo, rat
Description: Intraplantar injection of Complete Freund's Adjuvant (CFA) in rodents results in a long-lasting inflammatory reaction, characterized by a pronounced hypersensitivity to both thermal and mechanical stimuli. This hypersensitivity peaks between 24-72 hours following injection and can last for several weeks. […] This paradigm also may be conducted with a multiple dosing or a prophylactic dosing regime designed to alter the course of hyperalgesia development. This test predicts the analgesic, anti-allodynic and antihyperalgesic effect of numerous effective clinical agents, including NSAIDS such as acetaminophen, aspirin and ibuprofen, and opioids such as morphine.
Each rat was placed in a test chamber on a warm glass surface and allowed to acclimate for approximately 10 minutes. A radiant thermal stimulus (beam of light) was then focused through the glass onto the plantar surface of each hind paw in turn. The thermal stimulus was automatically shut off by a photoelectric relay when the paw was moved or when the cut-off time was reached (20 seconds for radiant heat at ˜5 Amps). An initial (baseline) response latency to the thermal stimulus was recorded for each animal prior to the injection of CFA. Twenty-four hours following intraplantar CFA injection, the response latency of the animal to the thermal stimulus was then re-evaluated and compared to the animal's baseline response time. […] Immediately following the post-CFA latency assessment, test compound or vehicle (usually Solutol, hydroxypropyl methylcellulose, hydroxypropyl beta-cyclodextrin or PEG-400) was administered i.p. or p.o. to rats. […] The percent reversal (% R) of hypersenstivitiy was calculated according to the following formula: % Reversal=(Treatment Response−CFA Response)/(Baseline Response−CFA Response)×100.

T1 sequence (Q1A7N1 1-1104): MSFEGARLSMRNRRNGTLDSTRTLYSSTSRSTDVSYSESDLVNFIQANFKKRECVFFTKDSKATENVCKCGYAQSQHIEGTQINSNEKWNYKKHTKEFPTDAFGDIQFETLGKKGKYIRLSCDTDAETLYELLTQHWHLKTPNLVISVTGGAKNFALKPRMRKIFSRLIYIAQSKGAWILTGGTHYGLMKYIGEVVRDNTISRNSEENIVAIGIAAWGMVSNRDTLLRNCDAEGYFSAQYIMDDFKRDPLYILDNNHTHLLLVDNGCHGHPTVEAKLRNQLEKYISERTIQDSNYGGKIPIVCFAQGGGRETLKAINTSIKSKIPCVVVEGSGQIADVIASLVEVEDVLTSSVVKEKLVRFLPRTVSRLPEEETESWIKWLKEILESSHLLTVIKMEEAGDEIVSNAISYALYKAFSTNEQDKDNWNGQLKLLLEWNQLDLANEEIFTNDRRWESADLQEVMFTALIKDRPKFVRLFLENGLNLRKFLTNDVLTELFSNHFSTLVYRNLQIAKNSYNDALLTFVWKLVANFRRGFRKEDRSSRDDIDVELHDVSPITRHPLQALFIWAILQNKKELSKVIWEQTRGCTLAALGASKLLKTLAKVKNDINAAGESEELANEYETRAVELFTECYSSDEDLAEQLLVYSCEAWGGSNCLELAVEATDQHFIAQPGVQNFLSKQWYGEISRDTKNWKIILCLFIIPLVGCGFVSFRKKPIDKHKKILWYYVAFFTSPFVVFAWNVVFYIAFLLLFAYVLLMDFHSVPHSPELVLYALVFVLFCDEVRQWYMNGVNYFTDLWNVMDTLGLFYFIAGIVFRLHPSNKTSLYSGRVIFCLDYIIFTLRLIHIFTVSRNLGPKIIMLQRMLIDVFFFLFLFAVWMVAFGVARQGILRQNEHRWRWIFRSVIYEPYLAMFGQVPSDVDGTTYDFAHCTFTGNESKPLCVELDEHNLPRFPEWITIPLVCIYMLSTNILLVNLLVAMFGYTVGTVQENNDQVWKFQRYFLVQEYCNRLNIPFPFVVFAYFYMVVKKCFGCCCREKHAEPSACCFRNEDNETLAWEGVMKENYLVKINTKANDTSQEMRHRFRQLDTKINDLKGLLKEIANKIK

Structure (SMILES) | IC50 (canine TRPM8) | % I (0.5 μM) (canine TRPM8) | % I (1 μM) (canine TRPM8) | other results
CCOP(=O)(OCC)C(Cc1ccc(F)c(Cl)c1)c1sc2ccccc2c1Br (stereo not drawn) [Cpd 244] | 28 nM | 103% |  | % Reversal ([1]; 30 mg/kg p.o., time 2 (h)): 45%
CCOP(=O)(OCC)C(Cc1ccc(SC)cc1)c1sc2ccccc2c1Cl (stereo not drawn) [Cpd 299] | 141 nM | 101% |  | % Reversal ([1]; 30 mg/kg p.o., time 1 (h)): 23%
CCOP(=O)(OCC)C(Cc1ccc(F)cc1)c1sc2ccccc2c1Br (stereo not drawn) [Cpd 238, [1-(3-Bromo-benzo[b]thiophen-2-yl)-2-(4-fluoro-phenyl)-ethyl]-phosphonic acid diethyl ester] |  | 104% |  | % Reversal ([1]; 30 mg/kg p.o., time 2 (h)): 56%
CCOP(=O)(OCC)C(Cc1ccc(F)c(C(F)(F)F)c1)c1sc2ccccc2c1Cl (stereo not drawn) [Cpd 298] | 85 nM | 99% |  | % Reversal ([1]; 30 mg/kg p.o., time 1 (h)): 20%
CCOP(=O)(OCC)C(Cc1ccc(C(F)(F)F)cc1)c1sc2ccccc2c1Br (stereo not drawn) [Cpd 154] | 27 nM | 103% |  | 
CCOP(=O)(OCC)C(Cc1ccc(Cl)c(Cl)c1)c1sc2ccccc2c1Br (stereo not drawn) [Cpd 24, [1-(3-Bromo-benzo[b]thiophen-2-yl)-2-(3,4-dichloro-phenyl)-ethyl]-phosphonic acid diethyl ester] |  |  | 100% | 
Cc1c(C(Cc2ccc(F)c(F)c2)P(=O)(OC(C)C)OC(C)C)oc2ccccc12 (racemic) [Cpd 11] | 43 nM and 47 nM |  | 99% and 103% | 
CCOP(=O)(Cc1cc2ccccc2s1)OCc1ccccc1F (stereo not drawn) [Cpd 109, Benzo[b]thiophen-2-ylmethyl-phosphonic acid ethyl ester 2-fluoro-benzyl ester] |  |  | 17% | 
CCOP(=O)(OCC)C(Cc1ccc(C(F)(F)F)cc1F)c1sc2ccccc2c1Cl (stereo not drawn) [Cpd 291] | 156 nM | 103% |  | 
CC(C)OP(=O)(OC(C)C)C(Cc1ccc(F)c(F)c1)c1oc2cccc(F)c2c1Br (stereo not drawn) [Cpd 205] | 50 nM |  | 101% | 
CC(C)OP(=O)(OC(C)C)C(Cc1cc(Cl)ccc1F)c1sc2ccccc2c1Br (stereo not drawn) [Cpd 308] | 17 nM | 103% |  | 
CCOP(=O)(OCC)C(Cc1cccc(Cl)c1)c1sc2ccccc2c1Br (stereo not drawn) [Cpd 137, [1-(3-Bromo-benzo[b]thiophene-2-yl)-2-(3-chloro-phenyl)-ethyl]-phosphonic acid diethyl ester] |  | 102% |  | % Reversal ([1]; 30 mg/kg p.o., time 1 (h)): 34%
CC(C)OP(=O)(OC(C)C)C(Cc1ccc(Cl)cc1)c1sc2ccccc2c1Br (stereo not drawn) [Cpd 288] | 65 nM | 103% |  | 
CCOP(=O)(OCC)C(Cc1cc(Cl)ccc1F)c1sc2ccccc2c1Br (stereo not drawn) [Cpd 307] | 26 nM | 103% |  | 
CC(C)OP(=O)(OC(C)C)[C@H](Cc1ccc(F)c(F)c1)c1sc2ccccc2c1Br [Cpd 235, (R)-[1-(3-Bromo-benzo[b]thiophen-2-yl)-2-(3,4-difluoro-phenyl)-ethyl]-phosphonic acid diisopropyl ester] |  | 56% |  | 
CCOP(=O)(OCC)C(Cc1ccc(F)cc1C(F)(F)F)c1sc2ccccc2c1Br (stereo not drawn) [Cpd 245] | 124 nM | 103% |  | 
CCOP(=O)(OCC)C(Cc1ccccc1C)c1sc2ccccc2c1C (racemic) [Cpd 26] | 108 nM |  | 100% | 
CCOP(=O)(OCC)C(Cc1ccc(F)c(F)c1)c1sc2ccccc2c1-c1ccccc1F (stereo not drawn) [Cpd 216] | 126 nM | 100% |  | 
CCOP(=O)(OCC)C(Cc1ccc(Cl)cc1)c1sc2ccccc2c1Cl (stereo not drawn) [Cpd 293] | 156 nM | 103% |  | 
CCOP(=O)(OCC)C(Cc1cccc(Br)c1)c1sc2ccccc2c1Br (stereo not drawn) [Cpd 295] | 31 nM and 16 nM | 102% and 103% |  | 
CC(C)OP(=O)(OC(C)C)C(Cc1cc(C(F)(F)F)ccc1F)c1sc2ccccc2c1Cl (stereo not drawn) [Cpd 172] | 105 nM | 104% |  | 

Structure (SMILES) | IC50 (canine TRPM8) | % I (0.5 μM) (canine TRPM8) | % I (1 μM) (canine TRPM8) | other results
CCOP(=O)(OCC)C(Cc1ccc(F)c(F)c1)c1sc2ccccc2c1Br (stereo not drawn) [Cpd 127, [1-(3-Bromo-benzo[b]thiophen-2-yl)-2-(3,4-difluoro-phenyl)-ethyl]-phosphonic acid dethyl ester] |  |  | 100% | % Reversal ([1]; 30 mg/kg p.o., time 1 (h)): 88%
CCOP(=O)(OCC)C(Cc1ccc(F)c(F)c1)c1sc2ccccc2c1-c1ccccc1O (stereo not drawn) [Cpd 215] | 85 nM | 101% |  | 
CCOP(=O)(OCC)C(Cc1ccc(F)c(F)c1)c1sc2cccc(F)c2c1C (stereo not drawn) [Cpd 3, [2-(3,4-Difluoro-phenyl)-1-(4-fluoro-3-methyl-benzo[b]-thiophene-2-yl)-ethyl]-phosphonic acid diethyl ester] |  |  | 100% | 
CCOP(=O)(OCC)C(Cc1cc(F)cc(F)c1Cl)c1sc2ccccc2c1C (racemic) [Cpd 28] | 110 nM |  | 100% | 
CCOP(=O)(OCC)C(Cc1ccc(F)c(F)c1)c1sc2ncccc2c1Br (stereo not drawn) [Cpd 132, 1-[(3-Bromo-thieno[2,3-b]pyridin-2-yl)-2-(3,4-difluoro-phenyl)-ethyl]-phosphonic acid diethyl ester] |  |  | 102% | 
CCOP(=O)(OCC)C(Cc1ccc(OC)c(F)c1)c1sc2ccccc2c1Br (stereo not drawn) [Cpd 158] | 59 nM | 101% |  | 
CC(C)OP(=O)(OC(C)C)C(Cc1cccc(C(F)(F)F)c1)c1sc2ccccc2c1Cl (stereo not drawn) [Cpd 170] | 73 nM | 103% |  | 
CC(C)CCOP(=O)(OCCC(C)C)C(Cc1ccc(F)c(F)c1)c1sc2ccccc2c1Br (stereo not drawn) [Cpd 211] | 95 nM | 97% |  | 
CC(C)OP(=O)(OC(C)C)C(Cc1ccc(F)c(C(F)(F)F)c1)c1sc2cccc(F)c2c1Br (stereo not drawn) [Cpd 222] | 33 nM | 103% |  | 
COc1cc(CC(c2sc3ccccc3c2Br)P(=O)(OC(C)C)OC(C)C)ccc1F (stereo not drawn) [Cpd 157] |  | 103% |  | 
CCOP(=O)(OCC)C(Cc1cccc(SC(F)(F)F)c1)c1sc2ccccc2c1Cl (stereo not drawn) [Cpd 296] | 137 nM | 102% |  | 
CC(C)OP(=O)(OC(C)C)C(Cc1ccc(F)c(F)c1)c1sc2ccccc2c1C(C)C (racemic) [Cpd 19] | 68 nM |  | 100% | 
CCOP(=O)(OCC)C(Cc1cc(O)c(Cl)cc1F)c1sc2ccccc2c1Br (stereo not drawn) [Cpd 231] | 122 nM | 98% |  | 
CCOP(=O)(OCC)C(Cc1cccc(C(F)(F)F)c1Cl)c1sc2ccccc2c1Cl (stereo not drawn) [Cpd 280] | 227 nM | 101% |  | 
CCOP(=O)(OCC)C(Cc1cccc(C(F)(F)F)c1F)c1sc2ccccc2c1Cl (stereo not drawn) [Cpd 281] | 131 nM | 102% |  | 
CC(C)OP(=O)(OC(C)C)C(Cc1ccc(F)c(F)c1)c1sc2ccccc2c1Cl (stereo not drawn) [Cpd 12, [1-(3-Chloro-benzo[b]thiophen-2-yl)-2-(3,4-difluoro-phenyl)-ethyl]-phosphonic acid diisopropyl ester] |  |  | 100% | % Reversal ([1]; 30 mg/kg i.p., time 1 h): 105%
COc1ccc(CC(c2sc3ccccc3c2Br)P(=O)(OC(C)C)OC(C)C)cc1F (stereo not drawn) [Cpd 159] | 36 nM | 103% |  | 
CCOP(=O)(OCC)C(Cc1ccc(C(F)(F)F)cc1F)c1sc2ccccc2c1Br (stereo not drawn) [Cpd 150] | 90 nM | 103% |  | 
CCOP(=O)(OCC)C(Cc1ccc2ccccc2c1)c1sc2ccccc2c1C (racemic) [Cpd 46] | 167 nM |  | 99% | 
CCOP(=O)(OCC)C(Cc1ccc(Cl)c(Cl)c1)c1cc2ccccc2s1 (stereo not drawn) [Cpd 78, [1-Benzo[b]thiophen-2-yl-2-(3,4-dichloro-phenyl)-ethyl]-phosphonic acid diethyl ester] |  |  | 95% | 
